Patent US4775691A, “4H-benzo[4,5]cyclohepta[1,2-b]thiophene derivatives” (Sandoz Ltd., priority 1985, dated 1988)
Like-named read-outs stand apart in the source and are kept apart here.

Key:
[1] = tested on: established adjuvant arthritis in the rat; assay: Adjuvant arthritis test in the rat (Test A), anti-inflammatory activity; format: in vivo; conditions: for ED50: read-out: ED50, Test A
Description: For this test, adjuvant arthritis is induced according to the method of Pearson and Wood, "Arthr.

[2] = tested on: arthritis pain in the rat; assay: Arthritis pain test in the rat (Test C), analgesic activity; format: in vivo, rat (OFA); conditions: for ED50: read-out: ED50, Test C
Experimental: For this test male rats (OFA) of 110-120 g are treated with 0.1 ml of a Myobacterium smegmatis suspension in paraffin oil (0.6 mg Mycobact./0.1 ml oil) injected i.c. into the tail root. Market arthritis in the hind-paws develops ca. 12 days after treatment. 30 mins. before administration of test-substance, control measurement is performed by flexing the foot joint of the right or left hind-paw using a Statham transducer until volcalisation occurs. […] Test substance is administered orally and the flexion procedure repeated 1, 3 and 5 hours subsequently. The pressure at which vocalisation occurs is noted, the value recorded for each rat at each interval being the average value of three successive measurements. Animals in which the vocalisation threshold is doubled with respect to the control measurement are considered to be protected. The ED50 estimated for each post-treatment time according to the Probit method is taken as the dosage at which 50% of animals are protected. Active agents of the invention are active in this test at dosages of from 3.2 to 100 mg/kg.

[3] = tested on: LPS (E. coli) induced fever in the rat; assay: LPS (E. coli) induced fever test in the rat (Test B), anti-pyretic activity; format: in vivo, rat (Sprague-Dawley); conditions: for ED50: Escherichia coli, 2 h, read-out: ED50, Test B
Experimental: For this test male rats (Sprague-Dawley) of 130-180 g are fasted overnight. Body temperature is measured the following morning using a rectal probe connected to a telethermometer. […] Body temperature is measured 2 hours later and this value taken as the initial temperature. 6 hours after injection, the test animals receive an oral dosage of the test substance suspended in 0.5% tragacanth or tragacanth alone (control). Body temperature is again measured after a further 2 hours.

[4] = fraction of commonly employed acetylsalicylic acid dosage

SMILES | ED50 ([1]; Rattus norvegicus) | ED50 ([2]; Rattus norvegicus, po) | ED50 ([3]; po) | ED50 ([1]; established adjuvant arthritis, rat) | indicated daily dosage relative to acetylsalicylic acid, anti-inflammatory therapy [1, 4] | indicated daily dosage relative to acetylsalicylic acid, analgesic therapy [2, 4] | ED50 ([2]; oral, rat, dosage at which 50% of animals are protected (vocalisation threshold doubled), post-treatment time not stated) | ED50 ([3]; oral, rat, dosage at which increase in rectal temperature is 50% of control group) | indicated daily dosage relative to acetylsalicylic acid, anti-pyretic therapy [3, 4]
CC(=O)Oc1ccccc1C(=O)O [Compound B, acetyl-salicylic acid, reference compound] | 240 mg/kg | 90 mg/kg | 161 mg/kg | – | – | – | – | – | –
COC1=Cc2ccccc2/C(=C\C(=O)O)c2cc(Cl)sc21 [Compound A, [2-chloro-10-methoxy-4H-benzo[4,5]-cyclohepta[1,2-b]thiophen-4-ylidene]acetic acid (E)-isomer] | – | – | – | 10 ± 2 mg/kg | 1/24 | 1/5 | 18 mg/kg | 14 ± 5 mg/kg | 1/10
